{
  "source": "patent US20230226079A1",
  "about": "“METHODS AND COMPOSITIONS FOR TREATMENT OF SOLID TUMORS” (Saint Louis University, priority 2022, published 2023)",
  "key": {"[1]": {"tested_on": "HNC (JHU022, JHU029, Ca127) cell lines", "type": "cell-based", "protocol": "Ca127, JHU029, JHU022 and NOK were seeded in 96 well-plate (5000 cells/well) and cells were treated with different concentration of M-I for 48 h. There were untreated control and DMSO treated vehicle control group for comparison. Cytotoxicity assay was performed using Cell Counting Kit-8 (Dojindo Molecular Technology, Rockville, Md., USA) according to manufacturer instruction.\nDue to their limited reported biology, the Inventors have selected a few triterpenoids and triterpene glycosides, based on their availability, for preliminary in vitro screening against HNC (JHU022, JHU029, Ca127) cell lines. The Inventors identified momordicine-I (M-I) as one of the chemical constituents at the retention time of 21.06 min in the BME (FIG. 1A). The M-I [C30H4804, PubChem CID: 14807332; IUPAC Name: (3S, 7S, 8S, 9R, 10R, 13R, 14S, 17R) 3,7-dihydroxy-17-(4-hydroxy-6-methylhept-5-en-2-yl)-4,4,13,14-tetramethyl-2,3,7,8,10,11, 12,15, 16,17-decahydro-1H-cyclopenta[a]phenanthrene-9-carbaldehyde] is a white crystalline solid that belongs to the cucurbitane-type triterpene class (FIG. 1B). […] Other compounds, mom ordicoside K (MK), and karavilagenin D (KD), were also examined on HNC cell cytotoxicity assay. These, two other compounds required much higher amounts (>50 ug/mL) even for -40% cell death."}, "[2]": {"tested_on": "c-Myc, survivin and cyclin D1", "assay": "Western blot for STAT3 downstream molecules in HNC cells", "type": "cell-based", "settings": "Ca127 and JHU029 cells", "quoted_text": "The powder was dissolved in DMSO and added to the cells at different concentrations. Based on cytotoxicity data, Ca127 and JHU029 cells were treated with 10 ug/mL and JHU022 cells were treated with 20 ug/mL dose of M-I and incubated for 48 hr for further experiments. All the experiments were done at least in triplicate."}, "Toxicity study, 5 days": {"assay": "Toxicity study, 5 days", "type": "in vivo", "settings": "BME 30% in drinking water", "protocol": "For toxicity study, C57B1/6 male mice were received either 30% BME through drinking water or 20 mg/kg of M-I twice a day or 30 mg/kg of M-I once a day by IP injection for 5 days. There were three mice in each group, including untreated control. Blood was collected on day 6, and serum was prepared. Serum parameters related to hepatotoxicity (total bilirubin, alanine transaminase, aspartate transaminase, and alkaline phosphatase) and nephrotoxicity (urea and creatinine) were performed."}, "JHU029 xenograft": {"tested_on": "JHU029 xenograft", "assay": "Tumorigenicity assay, JHU029 xenograft model", "type": "in vivo, nude mice", "protocol": "(§1) JHU029 or Ca127 cells (1.5 10^6) containing 40% Matrigel were injected subcutaneously into the flank of BALB/c athymic nude mice (7-8 weeks old). When the palpable tumor was developed (>60 mm3), mice were divided into three groups randomly, 5 mice in each group. The control group was without any treatment. The BME group received 30% (v/v) BME through drinking water. M-I group received 30 mg/kg dose of M-I once in day, every day. Body weight was monitored, and tumor size was measured using a slide caliper and volume was calculated using the formula 1/2 L X W2. After animal sacrifice tumors were dissected out and snap frozen in liquid nitrogen for further analysis. All the animal experiments were carried out in accordance NIH guidelines, following a protocol approved (1017) by the Institutional Animal Care and Use Committee (IACUC) of Saint Louis University."}, "Ca127 xenograft": {"tested_on": "Ca127 xenograft", "assay": "Tumorigenicity assay, Ca127 xenograft model", "type": "in vivo, nude mice", "settings": "M-I 30 mg/kg IP once a day, BME 30% in drinking water", "protocol": "as §1"}, "c-Met and c-Myc": {"tested_on": "c-Met and c-Myc", "assay": "Western blot of Ca127 tumor lysates", "type": "in vivo, nude mice", "settings": "Ca127 xenograft tumors", "protocol": "Lysates from control, BME or M-I treated cells and tumors were prepared using 2 SDS sample buffer and subjected to western blot analysis using specific antibodies to c-Met (1:500, Cell Signaling Technology, CST, Denvers, Mass., USA,), phospho-STAT3 (pSTAT3-Tyr-705) (1:1000, CST), total STAT3 (1:1000, CST), c-Myc (1:1000, CST), surviving (1:500, Santa Cruz Biotechnology, SBT, Dallas, Tex., USA) and cyclin D1 (1: 500, SBT). HRP conjugated anti-mouse or anti-rabbit secondary antibodies were purchased from Bio-Rad (Hercules, Calif., USA). The blot was reprobed with HRP conjugated -actin antibody (1:5000; SBT) to compare protein load in each lane. Densitometry analysis was done using Image J software (NIH, Bethesda, Md., USA).\nas §1, with “All the animal experiments were carried out in accordance NIH guidelines, following a protocol approved (1017) by the Institutional Animal Care and Use Committee (IACUC) of Saint Louis University.” left out"}, "4T1 cells": {"tested_on": "4T1 cells", "assay": "Cell viability of 4T1 cells", "type": "cell-based", "settings": "Mus musculus, 72h", "protocol": "FIG. 8 illustrates 4T1 and MDA-MB-231 cells treated with M-I at indicated doses for 72h. The viability of control cells was arbitrarily set to 100%. Results shown are an average of three independent experiments. Data are represented as mean±SD.\nThe Inventors tested human MDA-MB-231 and mouse 4T1 cells in dose dependent manner (FIG. 8). […] The Inventors also tested other compounds in TNBC cell cytotoxicity assays, but these required much higher amounts (>[…]) even for ˜40% cell death."}, "NK3.3 cells": {"tested_on": "NK3.3 cells", "assay": "NK-cell viability", "type": "cell-based", "protocol": "FIG. 9 illustrates NK3.3 cells treated with bitter melon extract or M-I and cell viability was measured at 48h or 72h after treatment. Results shown are an average of three independent experiments. Small bar indicates standard error. (* p <0.05)\nNK cells are implicated in drug induced resistant cancer cells to drive tumor growth (Smalley et al., 2020). […] Bitter melon extract was used as a control. Control or M-I treated NK3.3 cells were also cocultured with MDA-MB-231 cells at 1:5 (Target:Effector) ratio for 24 h and stained for viable/dead cells. […] The apoptotic markers were further examined by Western blot analysis."}, "[3]": {"tested_on": "4T1 (mouse) cells implanted into the mammary fat pad", "assay": "Orthotopic syngeneic breast cancer mouse model (4T1)", "type": "in vivo, Balb/c mice", "settings": "M-I 30 mg/mouse/day ip; pilot study", "protocol": "FIG. 12 illustrates 4T1 cells tumor bearing mice were randomly divided into two groups mice (n=4). Starting day of treatment by M-I (red color) or vehicle (control-blue color) graph was marked by up arrow.\nThe Inventors further evaluated the efficacy of M-I in orthotopic breast cancer mouse models in a pilot study. Syngeneic breast cancer model using 4T1 (mouse) cells implanted into the mammary fat pad of Balb/c mice. Mice were divided into two groups. One group received M-I (30 mg/mouse/day) and the other group received vehicle as a control by ip."}, "[4]": {"settings": "literature; listed as Momordicine I; cited from earlier work"}},
  "note": "Entries after “also recorded” stand apart in the source; their conditions may differ.",
  "data": [
    {"smiles": "CC(C)=CC(O)CC(C)[C@H]1CC[C@@]2(C)[C@@H]3[C@@H](O)C=C4[C@@H](CC[C@H](O)C4(C)C)[C@]3(C=O)CC[C@]12C", "note": "(stereo partly drawn) [M-I, (3S, 7S, 8S, 9R, 10R, 13R, 14S, 17R) 3,7-dihydroxy-17-(4-hydroxy-6-methylhept-5-en-2-yl)-4,4,13,14-tetramethyl-2,3,7,8,10,11, 12,15, 16,17-decahydro-1H-cyclopenta[a]phenanthrene-9-carbaldehyde]", "values": [
      {"measurement": "inhibition of HNC cells in cytotoxicity assay", "setting": "[1]", "result": "inhibited HNS cells in a dose-dependent manner"},
      {"measurement": "STAT3 downstream molecules c-Myc, survivin and cyclin D1", "setting": "[2]", "result": "significant inhibition"},
      {"measurement": "body weight in toxicity study", "setting": "Toxicity study, 5 days; M-I 20 mg/kg twice a day or 30 mg/kg once a day IP, five days", "result": "stable"},
      {"measurement": "serum total bilirubin, alanine transaminase, aspartate transaminase, alkaline phosphatase, creatinine, urea and glucose versus untreated control", "setting": "Toxicity study, 5 days; blood on day six, M-I IP five days", "result": "comparable"},
      {"measurement": "reduction of tumor growth, M-I compared with BME", "setting": "JHU029 xenograft; M-I 30 mg/kg IP once a day versus BME 30% in drinking water", "result": "better effect"},
      {"measurement": "tumor volume", "setting": "JHU029 xenograft; M-I 30 mg/kg IP once a day, BME 30% in drinking water, sacrifice day 32", "result": "significantly reduced tumor volume"},
      {"measurement": "sudden drop in body weight", "setting": "JHU029 xenograft; three out of five mice, Day 20, M-I 30 mg/kg IP once a day, weight gained back", "result": "−10", "unit": "%"},
      {"measurement": "reduction of tumor growth", "setting": "Ca127 xenograft", "result": "−50", "unit": "%"},
      {"measurement": "body weight", "setting": "Ca127 xenograft; throughout the experiment", "result": "increasing body weight"},
      {"measurement": "c-Met and c-Myc expression in tumors versus control", "setting": "c-Met and c-Myc", "result": "significant reduction"},
      {"measurement": "IC50", "setting": "4T1 cells", "result": 5, "unit": "µg/mL"},
      {"measurement": "NK-cell viability", "setting": "NK3.3 cells", "result": "no cytotoxic effect"},
      {"measurement": "tumor volumes versus vehicle control", "setting": "[3]", "result": "significantly reduced"},
      {"measurement": "Reported Biology", "setting": "[4]", "result": "stimulate insulin; also recorded: cardiac fibrosis"}
    ]}
  ]
}
